According to patent publication US9695155B2, “Herbicidal substituted pyrimidinyloxy benzene compounds” (E. I. DU PONT DE NEMOURS AND COMPANY, priority 2013, dated 2017):

Tests used:
morningglory [1] = test: Test A preemergence; format: in vivo, Ipomoea spp.; conditions: for Morningglory plant response rating (0 to 100 scale): 125 g ai/ha
Summary of the method: (§1)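 Pre- and postemergence greenhouse screen. Soil: loam + sand. Spray carrier: solvent mixture, non-phytotoxic, with surfactant. Post timing at 1–2 leaves, height 2–10 cm. Readout: visual injury on a 0–100 scale roughly 10 days after application, untreated plants as reference.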

large (Lg) crabgrass [2] = test: Test A preemergence; format: in vivo, Digitaria sanguinalis; conditions: for Crabgrass, Large plant response rating (0 to 100 scale): 125 g ai/ha
Summary of the method: as §1

velvetleaf [3] = test: Test A preemergence; format: in vivo, Abutilon theophrasti; conditions: for Velvetleaf plant response rating (0 to 100 scale): 125 g ai/ha
Summary of the method: as §1

giant foxtail [4] = test: Test A preemergence; format: in vivo, Setaria faberii; conditions: for Foxtail, Giant plant response rating (0 to 100 scale): 125 g ai/ha
Summary of the method: as §1

giant foxtail [5] = test: Test A postemergence; format: in vivo, Setaria faberii
Summary of the method: as §1

pigweed [6] = test: Test A preemergence; format: in vivo, Amaranthus retroflexus; conditions: for Pigweed plant response rating (0 to 100 scale): 125 g ai/ha
Summary of the method: as §1

corn [7] = test: Test A preemergence; format: in vivo, Zea mays; conditions: for Corn plant response rating (0 to 100 scale): 125 g ai/ha
Summary of the method: as §1

wheat [8] = test: Test A preemergence; format: in vivo, Triticum aestivum; conditions: for Wheat plant response rating (0 to 100 scale): 125 g ai/ha
Summary of the method: as §1

morningglory [9] = test: Test A postemergence; format: in vivo, Ipomoea spp.
Summary of the method: as §1

rice = test: Test B flooded paddy test; format: in vivo, Oryza sativa; conditions: Flood, 250 g ai/ha; 0 to 100 scale where 0 is no effect and 100 is complete control
Summary of the method: (§2)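 Flooded to 3 cm at the 2-leaf stage, pots received compound through the paddy water and were kept at that depth under greenhouse conditions. After 13–15 days, effect was rated by eye relative to controls, 0 = none and 100 = complete control.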

barnyardgrass [10] = test: Test A postemergence; format: in vivo, Echinochloa crus-galli
Summary of the method: as §1

sedge, umbrella = test: Test B flooded paddy test; format: in vivo, Cyperus difformis; conditions: Flood, 250 g ai/ha; 0 to 100 scale where 0 is no effect and 100 is complete control
Summary of the method: as §2

barnyardgrass [11] = test: Test B flooded paddy test; format: in vivo, Echinochloa crus-galli; conditions: Flood, 250 g ai/ha; 0 to 100 scale where 0 is no effect and 100 is complete control
Summary of the method: as §2

large (Lg) crabgrass [12] = test: Test A postemergence; format: in vivo, Digitaria sanguinalis
Summary of the method: as §1

wheat [13] = test: Test A postemergence; format: in vivo, Triticum aestivum
Summary of the method: as §1

velvetleaf [14] = test: Test A postemergence; format: in vivo, Abutilon theophrasti
Summary of the method: as §1

Heteranthera limosa = test: Test B flooded paddy test; format: in vivo; conditions: Flood, 250 g ai/ha; 0 to 100 scale where 0 is no effect and 100 is complete control
Summary of the method: as §2

corn [15] = test: Test A postemergence; format: in vivo, Zea mays
Summary of the method: as §1

pigweed [16] = test: Test A postemergence; format: in vivo, Amaranthus retroflexus
Summary of the method: as §1

barnyardgrass [17] = test: Test A preemergence; format: in vivo, Echinochloa crus-galli; conditions: for Barnyardgrass plant response rating (0 to 100 scale, 0 is no effect, 100 is complete control): 125 g ai/ha
Summary of the method: as §1

[18] = 1000 g ai/ha, 0 to 100 scale, 0 no effect, 100 complete control, approx. 10 days
[19] = 1000 g ai/ha, 0 to 100 scale, 0 no effect, 100 complete control
[20] = 500 g ai/ha, 0 to 100 scale where 0 is no effect and 100 is complete control
[21] = 125 g ai/ha, 0 to 100 scale where 0 is no effect and 100 is complete control
[22] = 125 g ai/ha, 0 to 100 scale, 0 no effect, 100 complete control

## CC(=O)c1cn(-c2c(Br)cccc2Oc2ncc(Cl)cn2)nn1 [Compound 280]
Morningglory [1]; [18]
  Morningglory plant response rating: 0
Large (Lg) crabgrass [2]; [18]
  Crabgrass, Large plant response rating: 100
Velvetleaf [3]; [18]
  Velvetleaf plant response rating: 100
Giant foxtail [4]; [18]
  Foxtail, Giant plant response rating: 100
Giant foxtail [5]; [19]
  Plant response rating, Foxtail, Giant: 90
Pigweed [6]; [18]
  Pigweed plant response rating: 100
Corn [7]; [18]
  Corn plant response rating: 50
Wheat [8]; [18]
  Wheat plant response rating: 40
Morningglory [9]; [19]
  Plant response rating, Morningglory: 30
rice
  Plant response rating, Rice: 10
Barnyardgrass [10]; [19]
  Plant response rating, Barnyardgrass: 90
sedge, umbrella
  Plant response rating, Sedge, Umbrella: 10
Barnyardgrass [11]
  Plant response rating, Barnyardgrass: 10
Large (Lg) crabgrass [12]; [19]
  Plant response rating, Crabgrass, Large: 90
Wheat [13]; [19]
  Plant response rating, Wheat: 40
Velvetleaf [14]; [19]
  Plant response rating, Velvetleaf: 90
Heteranthera limosa
  Plant response rating, Ducksalad: 30
Corn [15]; [19]
  Plant response rating, Corn: 50
Pigweed [16]; [19]
  Plant response rating, Pigweed: 100
Barnyardgrass [17]; [18]
  Barnyardgrass plant response rating: 100

## C=C(C)c1cn(-c2c(Br)cccc2Oc2ncc(Cl)cn2)nn1 [Compound 114]
Morningglory [1]; [18]
  Morningglory plant response rating: 10
Large (Lg) crabgrass [2]; [19]
  Plant response rating, Crabgrass, Large: 100
Velvetleaf [3]; [18]
  Velvetleaf plant response rating: 100
Giant foxtail [4]; [18]
  Foxtail, Giant plant response rating: 100
Giant foxtail [5]; [19]
  Plant response rating, Foxtail, Giant: 90
Pigweed [6]; [18]
  Pigweed plant response rating: 100
Corn [7]; [19]
  Plant response rating, Corn: 20
Wheat [8]; [18]
  Wheat plant response rating: 40
Morningglory [9]; [19]
  Plant response rating, Morningglory: 80
rice
  Plant response rating, Rice: 0
Barnyardgrass [10]; [19]
  Plant response rating, Barnyardgrass: 100
sedge, umbrella
  Plant response rating, Sedge, Umbrella: 30
Barnyardgrass [11]
  Plant response rating, Barnyardgrass: 0
Large (Lg) crabgrass [12]; [19]
  Plant response rating, Crabgrass, Large: 90
Wheat [13]; [19]
  Plant response rating, Wheat: 60
Velvetleaf [14]; [19]
  Plant response rating, Velvetleaf: 100
Heteranthera limosa
  Plant response rating, Ducksalad: 50
Corn [15]; [19]
  Plant response rating, Corn: 70
Pigweed [16]; [19]
  Plant response rating, Pigweed: 100
Barnyardgrass [17]; [19]
  Plant response rating, Barnyardgrass: 90

## COC(=O)c1cccc(Oc2ncc(Cl)cn2)c1-n1cc(Br)cn1 [Compound 211]
Morningglory [1]
  Morningglory plant response rating (0 to 100 scale): 20
Morningglory [1]; [20]
  Morningglory plant response rating: 70
Large (Lg) crabgrass [2]
  Crabgrass, Large plant response rating (0 to 100 scale): 80
Large (Lg) crabgrass [2]; [20]
  Crabgrass, Large plant response rating: 100
Velvetleaf [3]
  Velvetleaf plant response rating (0 to 100 scale): 60
Velvetleaf [3]; [20]
  Velvetleaf plant response rating: 90
Giant foxtail [4]
  Foxtail, Giant plant response rating (0 to 100 scale): 100
Giant foxtail [4]; [20]
  Foxtail, Giant plant response rating: 100
Giant foxtail [5]; [21]
  Foxtail, Giant plant response rating: 30
Giant foxtail [5]; [20]
  Plant response rating, Foxtail, Giant: 60
Pigweed [6]
  Pigweed plant response rating (0 to 100 scale): 90
Pigweed [6]; [20]
  Pigweed plant response rating: 100
Corn [7]
  Corn plant response rating (0 to 100 scale): 0
Corn [7]; [20]
  Corn plant response rating: 0
Wheat [8]
  Wheat plant response rating (0 to 100 scale): 0
Wheat [8]; [20]
  Wheat plant response rating: 0
Morningglory [9]; [21]
  Morningglory plant response rating: 90
Morningglory [9]; [20]
  Plant response rating, Morningglory: 100
rice
  Plant response rating, Rice: 0
Barnyardgrass [10]; [21]
  Barnyardgrass plant response rating: 10
Barnyardgrass [10]; [20]
  Plant response rating, Barnyardgrass: 50
sedge, umbrella
  Plant response rating, Sedge, Umbrella: 0
Barnyardgrass [11]
  Plant response rating, Barnyardgrass: 0
Large (Lg) crabgrass [12]; [21]
  Crabgrass, Large plant response rating: 10
Large (Lg) crabgrass [12]; [20]
  Plant response rating, Crabgrass, Large: 50
Wheat [13]; [21]
  Wheat plant response rating: 0
Wheat [13]; [20]
  Plant response rating, Wheat: 0
Velvetleaf [14]; [21]
  Velvetleaf plant response rating: 50
Velvetleaf [14]; [20]
  Plant response rating, Velvetleaf: 90
Heteranthera limosa
  Plant response rating, Ducksalad: 0
Corn [15]; [21]
  Corn plant response rating: 0
Corn [15]; [20]
  Plant response rating, Corn: 0
Pigweed [16]; [21]
  Pigweed plant response rating: 90
Pigweed [16]; [20]
  Plant response rating, Pigweed: 100
Barnyardgrass [17]
  Barnyardgrass plant response rating (0 to 100 scale, 0 is no effect, 100 is complete control): 0
Barnyardgrass [17]; [20]
  Barnyardgrass plant response rating: 60

## CCOC(=O)c1cnn(-c2c(C#N)cccc2Oc2ncc(Br)cn2)c1 [Compound 294]
Morningglory [1]
  Morningglory plant response rating (0 to 100 scale): 0
Morningglory [1]; [20]
  Morningglory plant response rating: 0
Large (Lg) crabgrass [2]
  Crabgrass, Large plant response rating (0 to 100 scale): 30
Large (Lg) crabgrass [2]; [20]
  Crabgrass, Large plant response rating: 60
Velvetleaf [3]
  Velvetleaf plant response rating (0 to 100 scale): 10
Velvetleaf [3]; [20]
  Velvetleaf plant response rating: 70
Giant foxtail [4]
  Foxtail, Giant plant response rating (0 to 100 scale): 30
Giant foxtail [4]; [20]
  Foxtail, Giant plant response rating: 70
Giant foxtail [5]; [22]
  Plant response rating, Foxtail, Giant: 10
Giant foxtail [5]; [20]
  Plant response rating, Foxtail, Giant: 50
Pigweed [6]
  Pigweed plant response rating (0 to 100 scale): 100
Pigweed [6]; [20]
  Pigweed plant response rating: 100
Corn [7]
  Corn plant response rating (0 to 100 scale): 0
Corn [7]; [20]
  Corn plant response rating: 0
Wheat [8]
  Wheat plant response rating (0 to 100 scale): 0
Wheat [8]; [20]
  Wheat plant response rating: 0
Morningglory [9]; [22]
  Plant response rating, Morningglory: 20
Morningglory [9]; [20]
  Plant response rating, Morningglory: 30
rice
  Plant response rating, Rice: 0
Barnyardgrass [10]; [22]
  Plant response rating, Barnyardgrass: 20
Barnyardgrass [10]; [20]
  Plant response rating, Barnyardgrass: 60
sedge, umbrella
  Plant response rating, Sedge, Umbrella: 0
Barnyardgrass [11]
  Plant response rating, Barnyardgrass: 0
Large (Lg) crabgrass [12]; [22]
  Plant response rating, Crabgrass, Large: 0
Large (Lg) crabgrass [12]; [20]
  Plant response rating, Crabgrass, Large: 50
Wheat [13]; [22]
  Plant response rating, Wheat: 0
Wheat [13]; [20]
  Plant response rating, Wheat: 40
Velvetleaf [14]; [22]
  Plant response rating, Velvetleaf: 50
Velvetleaf [14]; [20]
  Plant response rating, Velvetleaf: 60
Heteranthera limosa
  Plant response rating, Ducksalad: 0
Corn [15]; [22]
  Plant response rating, Corn: 0
Corn [15]; [20]
  Plant response rating, Corn: 40
Pigweed [16]; [22]
  Plant response rating, Pigweed: 60
Pigweed [16]; [20]
  Plant response rating, Pigweed: 90
Barnyardgrass [17]
  Barnyardgrass plant response rating (0 to 100 scale, 0 is no effect, 100 is complete control): 0
Barnyardgrass [17]; [20]
  Barnyardgrass plant response rating: 20
